Tested on: ERK phosphorylation associated with APP based cell signaling
Experiment: ERK phosphorylation, Western blot, B103 cells co-transfected with APP
Text: This effect is not seen with cyclic peptide-2 or cyclic peptide-3. […] Cyclic peptide-1 is APP specific
ERK phosphorylation is associated with cell signaling. […] This assay was based on a western blot analysis.

Which results are given for C-P-H-F-C [cyclic peptide-2]?
ERK phosphorylation (Western blot, APP cells (B103 co-transfected with APP), cyclic peptide-1 at 21 uM): not seen; modulate ERK phosphorylation and/or switch APP processing from aberrant to normal (cyclized loop peptides prepared and tested): shown to modulate ERK phosphorylation and/or to switch APP processing from aberrant to normal

Source: patent US9534016B2, “Netrin loop peptide mimetics and uses thereof” (Buck Institute for Research on Aging, priority 2011, dated 2017)
